# Source: patent US11684068B2, “Herbicidal compositions and methods of use thereof” (Valent U.S.A. LLC, priority 2018, dated 2023)
# Assays:
# [1] = Wet sieve test and crystal examination after accelerated aging (long-term storage stability); format: physicochemical
# Description: Variations of Composition 1 from Table 1, above, were subjected to extreme temperatures to determine long-term storage stability including the likelihood of large crystals growing that cause clogging of the spray nozzle by performing the wet sieve test. Specifically, these compositions containing various amounts of polyvinyl alcohol and ammonium sulfate were subjected to 2 weeks at 54° C. and 4 weeks at 50° C. accelerated aging. The wet sieve test typically was performed soon after the samples were brought back to room temperature using the following protocol:
# A bottle containing the composition was emptied onto a 100-mesh sieve positioned on top of a receiver. Water was added to the bottle, shaken to rinse, and the rinse solution was poured onto the mesh to wash off the material. The rinsing step was repeated until visible quantity of residue on the mesh remained constant. If necessary, additional, minimum streams of water were introduced by way of a squirt or spray bottle to further clear the mesh. Typically, about 250 milliliters of water was used for about 40 grams of sample. The mesh was then dried to a constant weight and observed under a microscope.
# Variations of Composition 2 from Table 1, above, were subjected to several conditions to determine long-term storage stability including % wet sieve test residue. Specifically, these compositions contained 0% or 2.8% w/w of polyvinyl alcohol and 0% or 2.8% w/w ammonium sulfate or 0% or 2.8% or 5.6% w/w potassium citrate and were subjected to 2 weeks at 54° C. and 4 weeks at 50° C.
# Variations of Composition 3 from Table 1 above were subjected to several conditions to determine long-term storage stability including % wet sieve test residue. Specifically, these compositions contained 0 or 2.8% w/w of polyvinyl alcohol and 0% or 2.8% w/w ammonium sulfate and were subjected to 2 weeks at 54° C.
# Variations of Composition 4 from Table 1, above, were subjected to several conditions to determine long-term storage stability including % wet sieve test residue. Specifically, these compositions contained 0% or 2.8% w/w of polyvinyl alcohol and 0% or 2.8% w/w ammonium sulfate and were subjected to 2 weeks at 54° C.
# Compositions 5-7 from Table 1, above, were subjected to several conditions to determine long-term storage stability including % wet sieve test residue. Specifically, these compositions contained 1.4% or 1.5% w/w of polyvinyl alcohol and 2.0% or 2.8% w/w ammonium sulfate and were subjected to 2 weeks at 54° C. and 4 weeks at 50° C.
# [2] = Metribuzin solubility in salt solutions; format: physicochemical; conditions: saturated in ammonium sulfate, ammonium acetate and potassium citrate tribasic monohydrate solutions; FIG. 1
# Description: Metribuzin is partially soluble in water. Because of its partial solubility metribuzin grows crystals in aqueous solutions. It is a discovery of the present invention that, if water solubility of metribuzin is lowered, then crystal growth is inhibited or reduced. To determine if salts could lower the water solubility of metribuzin, metribuzin was added to the saturation point to several concentrations of ammonium sulfate, ammonium acetate and potassium citrate tribasic monohydrate solutions. Results can be seen in FIG. 1.
# [3] = variations of Composition 2, 54° C. 2 weeks and 50° C. 4 weeks
Compound,"effect of additive on crystal growth and sieve residue [1, 3]",water solubility of metribuzin versus salt concentration [2],"effect of additive on crystal growth and sieve residue ([1]; variations of Composition 3, 54° C. 2 weeks)","effect of additive on crystal growth and sieve residue ([1]; variations of Composition 4, 54° C. 2 weeks)"
O=C([O-])CC(O)(CC(=O)[O-])C(=O)[O-].[K+].[K+].[K+] [Potassium citrate],completely inhibited crystal growth,–,–,–
CSc1nnc(C(C)(C)C)c(=O)n1N [metribuzin],–,negatively correlated,–,–
N.N.O=S(=O)(O)O [Ammonium sulfate],reduced crystal growth to small crystals,–,reduced the amount of crystals isolated on the sieve substantially,inhibited crystal growth and lowered sieve residue
